Molecular target: human BTK (Homo sapiens (Human), UniProt Q06187)
Experiment: BTK inhibition: BTK-mediated phosphorylation of FAM-labeled substrate 5-FAM-[…]-NH2 (Caliper LC-3000)
Format: biochemical
Conditions: for BTK Inhibition (pIC50): residues 382 to 659 of human BTK, 60 minutes at room temperature, pIC50 = -log(IC50), IC50 molar
Text: The activity of compounds as BTK inhibitors may be determined by a variety of methods, including in vitro and in vivo methods.
This construct engineers an in-frame translational fusion with the Glutathione-S-Transferase (GST) protein for use in affinity purification. The fusion protein derived from this construct contains a protease recognition sequence to liberate the BTK from the GST affinity tag. High-titer baculoviral stocks, generated using the Bac-to-Bac® system (Invitrogen), are used to express the recombinant protein in Spodoptera frugiperda Sf9 cells in 10 L Wave bags. Recombinant proteins are isolated from cellular extracts by passage over Glutathione Sepharose 4B (GE Healthcare) and the BTK moiety is released from the GST affinity tag by treatment with PreScission protease. The BTK recombinant protein is further purified by size exclusion chromatography (HiLoad 16/60 Superdex 200, GE Healthcare) in a buffer containing 20 mM Hepes (pH 7.4), 50 mM NaCl, 10 mM MgCl2, 0.25 mM TCEP and 0.1 mM EDTA. The purity of the fractions is assessed by SDS PAGE and the peak protein fractions are pooled and concentrated using Amicon Ultra-15 Centrifugal Filter Devices (Millipore).
The inhibitory properties of compounds relative to BTK is determined using a black 384-well-plate format in a buffer which contains 50 mM Hepes, 10 mM NaCl, 10 mM MgCl2, 0.2 mM EDTA, 0.01% Brij35®, 1 mM DTT, and 0.1 mg/mL BSA at pH 7.3. The test compound is prepared in DMSO using 2-fold serial dilutions for 11 data points, which are added to the buffer so that each dilution contains 3% DMSO. […] The reaction mixtures are incubated at room temperature for 60 minutes and then quenched by adding 25 μL of 50 mM EDTA. To quantify the fluorescent-labeled substrate and product following reaction, the test plate is loaded on a Caliper LC-3000, which measures percent of conversion by microfluidic-based separation.
The compounds were tested in accordance with the assay described on page 42 of the specification.

human BTK, sequence (Q06187 382-659): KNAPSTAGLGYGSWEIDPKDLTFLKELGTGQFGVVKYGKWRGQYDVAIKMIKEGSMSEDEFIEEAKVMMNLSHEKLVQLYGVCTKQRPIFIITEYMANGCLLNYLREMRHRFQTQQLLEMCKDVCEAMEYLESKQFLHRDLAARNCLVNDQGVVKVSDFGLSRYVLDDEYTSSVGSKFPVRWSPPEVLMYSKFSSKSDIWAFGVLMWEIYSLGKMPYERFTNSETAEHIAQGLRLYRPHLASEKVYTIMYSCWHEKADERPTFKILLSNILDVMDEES

| BTK Inhibition (pIC50) | IC50 (read-out: BTK Inhibition (pIC50) (converted)) [nM] | Compound |
| --- | --- | --- |
| 7.5 | – | C=C(C)C(=O)N1CC[C@H](Nc2nc(-c3n[nH]c(=O)[nH]3)cc3ccccc23)C1 [Example 10, (S)-3-(1-((1-methacryloylpyrrolidin-3-yl)amino)isoquinolin-3-yl)-1H-1,2,4-triazol-5(4H)-one] |
| 7.5 | – | C=CC(=O)N1CCC[C@H](Oc2nc(-c3n[nH]c(=O)[nH]3)cc3ccccc23)C1 [Example 35, (S)-5-(1-((1-acryloylpiperidin-3-yl)oxy)isoquinolin-3-yl)-2,4-dihydro-3H-1,2,4-triazol-3-one] |
| 7.6 | – | C/C=C/C(=O)N1CC[C@H](Nc2nc(-c3n[nH]c(=O)[nH]3)cc3ccccc23)C1 [Example 15, (S,E)-3-(1-((1-(but-2-enoyl)pyrrolidin-3-yl)amino)isoquinolin-3-yl)-1H-1,2,4-triazol-5(4H)-one] |
| >8.2 | – | C=CC(=O)N1CC[C@H](Oc2nc(-c3n[nH]c(=O)[nH]3)cc3ccc(F)cc23)C1 [Example 18, (S)-3-(1-((1-acryloylpyrrolidin-3-yl)oxy)-7-fluoroisoquinolin-3-yl)-1H-1,2,4-triazol-5(4H)-one] |
| >8.0 | – | C=CC(=O)N1CC[C@H](OCc2nc(-c3n[nH]c(=O)[nH]3)cc3ccccc23)C1 [Example 13, (S)-3-(1-(((1-acryloylpyrrolidin-3-yl)oxy)methyl)isoquinolin-3-yl)-1H-1,2,4-triazol-5(4H)-one] |
| 7.1 | – | C=CC(=O)N1CC[C@@H](Oc2nc(-c3n[nH]c(=O)[nH]3)cc3ccccc23)C1 [Example 2, (R)-3-(1-((1-acryloylpyrrolidin-3-yl)oxy)isoquinolin-3-yl)-1H-1,2,4-triazol-5(4H)-one] |
| 8.3 | – | C=CC(=O)N1CC[C@H](Oc2nc(-c3n[nH]c(=O)[nH]3)ccc2C)C1 [Example 32, (S)-3-(6-((1-acryloylpyrrolidin-3-yl)oxy)-5-methylpyridin-2-yl)-1H-1,2,4-triazol-5(4H)-one] |
| >8.6 | – | O=C(CCl)N1CC[C@H](Nc2nc(-c3n[nH]c(=O)[nH]3)cc3ccccc23)C1 [Example 34, (S)-5-(1-((1-(2-chloroacetyl)pyrrolidin-3-yl)amino)isoquinolin-3-yl)-2,4-dihydro-3H-1,2,4-triazol-3-one] |
| >8.1 | – | C=CC(=O)NC1CCN(c2nc(-c3n[nH]c(=O)[nH]3)cc3ccccc23)C1 (stereo not drawn) [Example 4, N-(1-(3-(5-oxo-4,5-dihydro-1H-1,2,4-triazol-3-yl)isoquinolin-1-yl)pyrrolidin-3-yl)acrylamide] |
| 6.5 | – | C/C=C/C(=O)N1CC[C@@H](Oc2nc(-c3n[nH]c(=O)[nH]3)cc3ccccc23)C1 [Example 3, (R,E)-3-(1-((1-(but-2-enoyl)pyrrolidin-3-yl)oxy)isoquinolin-3-yl)-1H-1,2,4-triazol-5(4H)-one] |
| >7.9 | – | C=CC(=O)N1CCC[C@@H]1COc1nc(-c2n[nH]c(=O)[nH]2)cc2ccccc12 [Example 9, (R)-3-(1-((1-acryloylpyrrolidin-2-yl)methoxy)isoquinolin-3-yl)-1H-1,2,4-triazol-5(4H)-one] |
| >8.9 | – | C=CC(=O)N1CC[C@H](Nc2nc(-c3n[nH]c(=O)[nH]3)cc3cccc(F)c23)C1 [Example 23, (S)-3-(1-((1-acryloylpyrrolidin-3-yl)amino)-8-fluoroisoquinolin-3-yl)-1H-1,2,4-triazol-5(4H)-one] |
| 8.5 | – | C=CC(=O)N1CC[C@H](N(C)c2nc(-c3n[nH]c(=O)[nH]3)cc3ccccc23)C1 [Example 11, (S)-3-(1-((1-acryloylpyrrolidin-3-yl)(methyl)amino)isoquinolin-3-yl)-1H-1,2,4-triazol-5(4H)-one] |
| >8.5 | – | C=CC(=O)N1CC[C@H](Oc2nc(-c3n[nH]c(=O)[nH]3)cc3cccnc23)C1 [Example 16, (S)-3-(8-((1-acryloylpyrrolidin-3-yl)oxy)-1,7-naphthyridin-6-yl)-1H-1,2,4-triazol-5(4H)-one] |
| >8.6 | – | C=CC(=O)N1CC[C@H](Nc2nc(-c3n[nH]c(=O)[nH]3)cc3cccc(OC)c23)C1 [Example 29, (S)-3-(1-((1-acryloylpyrrolidin-3-yl)amino)-8-methoxyisoquinolin-3-yl)-1H-1,2,4-triazol-5(4H)-one] |
| >8.6 | – | C=CC(=O)N1CC[C@H](Nc2nc(-c3n[nH]c(=O)[nH]3)cc3cccnc23)C1 [Example 17, (S)-3-(8-((1-acryloylpyrrolidin-3-yl)amino)-1,7-naphthyridin-6-yl)-1H-1,2,4-triazol-5(4H)-one] |

The remaining lines, values behind:

| Compound | BTK Inhibition (pIC50) | IC50 (read-out: BTK Inhibition (pIC50) (converted)) [nM] |
| --- | --- | --- |
| C=CC(=O)N1CC[C@H](Oc2cccc(-c3n[nH]c(=O)[nH]3)n2)C1 [Example 31, (S)-3-(6-((1-acryloylpyrrolidin-3-yl)oxy)pyridin-2-yl)-1H-1,2,4-triazol-5(4H)-one] | 7.2 | – |
| C=CC(=O)N1CCC[C@H]1COc1nc(-c2n[nH]c(=O)[nH]2)cc2ccccc12 [Example 7, (S)-3-(1-((1-acryloylpyrrolidin-2-yl)methoxy)isoquinolin-3-yl)-1H-1,2,4-triazol-5(4H)-one] | 8.0 | – |
| C=CC(=O)N1CC[C@H](Nc2nc(-c3n[nH]c(=O)[nH]3)cc3ccc(F)cc23)C1 [Example 25, (S)-3-(1-((1-acryloylpyrrolidin-3-yl)amino)-7-fluoroisoquinolin-3-yl)-1H-1,2,4-triazol-5(4H)-one] | >8.6 | – |
| C=C(C)C(=O)N1CC[C@@H](Oc2nc(-c3n[nH]c(=O)[nH]3)cc3ccccc23)C1 [Example 1, (R)-3-(1-((1-methacryloylpyrrolidin-3-yl)oxy)isoquinolin-3-yl)-1H-1,2,4-triazol-5(4H)-one] | 6.7 | – |
| C=CC(=O)N1C[C@H](Oc2nc(-c3n[nH]c(=O)[nH]3)cc3ccccc23)[C@@H](C)C1 (racemic) [Example 19, 3-(1-(((3R,4S)-1-acryloyl-4-methylpyrrolidin-3-yl)oxy)isoquinolin-3-yl)-1H-1,2,4-triazol-5(4H)-one and 3-(1-(((3S,4R)-1-acryloyl-4-methylpyrrolidin-3-yl)oxy)isoquinolin-3-yl)-1H-1,2,4-triazol-5(4H)-one (mixture of enantiomers)] | – | < 6.31 |
| C=CC(=O)N1CC[C@H](Nc2nc(-c3n[nH]c(=O)[nH]3)cc3ccc(Cl)cc23)C1 [Example 26, (S)-3-(1-((1-acryloylpyrrolidin-3-yl)amino)-7-chloroisoquinolin-3-yl)-1H-1,2,4-triazol-5 (4H)-one] | >8.6 | – |
| C=C(C)C(=O)N1CC[C@H](Oc2nc(-c3n[nH]c(=O)[nH]3)cc3ccccc23)C1 [Example 12, (S)-3-(1-((1-methacryloylpyrrolidin-3-yl)oxy)isoquinolin-3-yl)-1H-1,2,4-triazol-5(4H)-one] | 6.9 | – |
| O=C(CCl)N1CC[C@H](Oc2nc(-c3n[nH]c(=O)[nH]3)cc3ccccc23)C1 [Example 33, (S)-5-(1-((1-(2-chloroacetyl)pyrrolidin-3-yl)oxy)isoquinolin-3-yl)-2,4-dihydro-3H-1,2,4-triazol-3-one] | >8.2 | – |
| C=CC(=O)N1C[C@H](Oc2nc(-c3n[nH]c(=O)[nH]3)cc3ccccc23)[C@@H](C)C1 [Example 20, 3-(1-(((3R,4S)-1-acryloyl-4-methylpyrrolidin-3-yl)oxy)isoquinolin-3-yl)-1H-1,2,4-triazol-5(4H)-one] | >8.6 | – |
| C=CC(=O)N1CC[C@H](Oc2cc(C)cc(-c3n[nH]c(=O)[nH]3)n2)C1 [Example 30, (S)-3-(6-((1-acryloylpyrrolidin-3-yl)oxy)-4-methylpyridin-2-yl)-1H-1,2,4-triazol-5(4H)-one] | >8.6 | – |
| C=CC(=O)N1CC[C@H](Nc2nc(-c3n[nH]c(=O)[nH]3)cc3cccc(Cl)c23)C1 [Example 28, (S)-3-(1-((1-acryloylpyrrolidin-3-yl)amino)-8-chloroisoquinolin-3-yl)-1H-1,2,4-triazol-5(4H)-one] | >8.6 | – |
| C=CC(=O)N1CCC[C@H]1CNc1nc(-c2n[nH]c(=O)[nH]2)cc2ccccc12 [Example 6, (S)-3-(1-(((1-acryloylpyrrolidin-2-yl)methyl)amino)isoquinolin-3-yl)-1H-1,2,4-triazol-5(4H)-one] | 8.0 | – |
| C=CC(=O)N1CC[C@H](Oc2nc(-c3n[nH]c(=O)[nH]3)cc3ccccc23)C1 [Example 5, (S)-3-(1-((1-acryloylpyrrolidin-3-yl)oxy)isoquinolin-3-yl)-1H-1,2,4-triazol-5(4H)-one] | >8.7 | – |
| C=CC(=O)N1CC[C@H](Nc2nc(-c3n[nH]c(=O)[nH]3)cc3ccccc23)C1 [Example 8, (S)-3-(1-((1-acryloylpyrrolidin-3-yl)amino)isoquinolin-3-yl)-1H-1,2,4-triazol-5(4H)-one] | >8.6 | – |
